Among the data in ChEMBL document CHEMBL1208777, “Synthesis of novel oxime-containing pyrazole derivatives and discovery of regulators for apoptosis and autophagy in A549 lung cancer cells” (Bioorg Med Chem Lett, 2010) are Activity, IC50 and inhibition values, retold here.

The subject of experiment [1] is A549. Put plainly: Cytotoxicity against human A549 cells after 48 hrs by SRB assay. The following applies: for IC50: A549, 48 h. In kind it is functional, cell-based.
Experiment [2] deals with A549. Put plainly: Cytotoxicity against human A549 cells at 10 to 40 uM by SRB assay. The format is functional, cell-based. The following applies: TDE = time-dependent effect. In general terms: The SRB assay estimates cell density from bound dye.
In experiment [3] the test system is A549. Put plainly: Anticancer activity against human A549 cells assessed as increase in autophagosome level at 40 uM after 24 hrs by Western blot analysis. In kind it is functional, cell-based.
The subject of experiment [4] is A549. Kind of experiment: Anticancer activity against human A549 cells assessed as occurrence of autophagy at 10 to 40 uM after 48 hrs by acridine orange staining-based fluorescence microscopy. The format is functional, cell-based.
Experiment [5] concerns A549. Put plainly: Induction of necrosis in human A549 cells assessed as LDH release at 40 uM after 48 hrs. In kind it is functional, cell-based. A general note: Release of lactate dehydrogenase indicates damage to the cell membrane.
Experiment [6] has as its system A549. Put plainly: Induction of apoptosis in human A549 cells assessed as occurrence of nuclear granulation at 10 to 40 uM after 48 hrs by Hoechst 33258 staining-based fluorescence microscopy. In kind it is functional, cell-based.
Experiment [7] concerns A549. Put plainly: Cytotoxicity against human A549 cells at 20 uM after 48 hrs by SRB assay. In kind it is functional. The following applies: A549, 48 h.
The test system of experiment [8] is A549. Put plainly: Cytotoxicity against human A549 cells at 40 uM after 48 hrs by SRB assay. The settings on record: A549, 48 h. In kind it is functional.
Experiment [9] concerns A549. Put plainly: Cytotoxicity against human A549 cells at 10 uM after 48 hrs by SRB assay. In kind it is functional. The settings on record: A549, 48 h.
The subject of experiment [10] is A549. Kind of experiment: Anticancer activity against human A549 cells assessed as increase in autophagosome level at 20 uM after 24 hrs by Western blot analysis. In kind it is functional, cell-based. (In general: In western blotting, separated proteins are transferred to a membrane and probed.)

Each structure is given as a SMILES string. Active and inactive are the calls of the source. The calls are words filed in the database; no cut-off is given here.

As a reminder, the IC50 is the concentration that gives 50% inhibition. Lower therefore signals greater potency. The inhibition is how much of the control response was suppressed.

For the compound `CCOC(=O)c1cc(-c2ccc(Cl)cc2)nn1C/C(=N/O)c1ccc(OC)cc1`, the Activity entry in experiment [1] was “Dose-dependent effect”; in experiment [2] it was “tde”. The compound further came in with a half-maximal inhibitory concentration (IC50) in experiment [1] of 17.8 µM. The result in experiment [3] and in experiment [4] was Active. Further, in experiment [5], the result was inactive.
Consider `CCOC(=O)c1cc(-c2ccc(OC)cc2)nn1C/C(=N/O)c1ccc(OC)cc1`, for which the Activity result in [1] is “Dose-dependent effect”; in [2], “tde”. In experiment [1], the IC50 was 36.5 µM. In addition, the result in experiment [3] and in [4] was Active. Besides, in experiment [5], the outcome was inactive.
Turning to `CCOC(=O)c1cc(-c2ccc(OC)cc2)nn1C/C(=N/O)c1ccc(Cl)cc1`, the results for the Activity result in experiment [1] and in experiment [2] were “Dose-dependent effect” and “tde”, respectively. This compound registered an IC50 in [1] of 16.3 µM. Moreover, the outcome in [6], in experiment [3] and in [4] was Active. The outcome in [5] was inactive.
Turning to `CCOC(=O)c1cc(-c2ccc(Cl)cc2)nn1C/C(=N/O)c1ccc(Cl)cc1`, the Activity result in experiment [1] is “Dose-dependent effect”; in [2] it was “tde”. In addition, the IC50 in experiment [1] was determined as 14.6 µM. The compound also returned an inhibition at 20 µM in [7] of 51.9%. In [8], at 40 µM the inhibition was 10.3%. For the same compound, the outcome in [6], in experiment [4] and in [10] was Active. The compound also had an inhibition at 10 µM in experiment [9] of 58.6%. For the same compound, the result in experiment [5] was inactive.
Turning to `CCOC(=O)c1cc(-c2ccccc2)nn1C/C(=N/O)c1ccc(Cl)cc1`, the Activity result is “Dose-dependent effect” in experiment [1] and “tde” in experiment [2]. The same compound gave an IC50 in [1] of 26.3 µM. For the same compound, the result in experiment [6], in experiment [4] and in experiment [10] was Active. The result in experiment [5] was inactive.
Turning to `CCOC(=O)c1cc(-c2ccccc2)nn1C/C(=N/O)c1ccc(OC)cc1`, the Activity entry in experiment [1] was “Dose-dependent effect”; in experiment [2], “tde”. Besides, in [1], the midpoint of inhibition, the IC50, lay at 29.1 µM. In addition, the outcome in experiment [3] and in [5] was inactive.
Take `CCOC(=O)c1cc(-c2ccc(OC)cc2)nn1C/C(=N/O)c1ccccc1`: in experiment [1], the Activity result is “Dose-dependent effect” and half-maximal inhibition (IC50) required 42.7 µM. Moreover, the Activity result in [2] was “tde”. In addition, the result in experiment [6] was Active. For the same compound, the result in [5] was inactive.
For the compound `CCOC(=O)c1cc(-c2ccc(Cl)cc2)nn1C/C(=N/O)c1ccccc1`, the Activity entry was “Dose-dependent effect” in experiment [1] and “tde” in experiment [2]. The IC50 in experiment [1] is 31.4 µM. In addition, the outcome in [6], in experiment [3] and in [4] was Active. The outcome in [5] was inactive.
As for `CCOC(=O)c1cc(-c2ccccc2)nn1C/C(=N/O)c1ccccc1`, in [1], the Activity entry is “Dose-dependent effect” and the IC50 is 29.8 µM. Besides, in experiment [2], the Activity result is “tde”. Further, the outcome in experiment [6] was Active. For the same compound, the outcome in experiment [5] was inactive.
